The test system of assay [1] is IBD mice (colon injury induced by acetic acid). Put plainly: Experiment I: acetic acid induced IBD in mice, glycyrrhizin and glycyrrhetinic acid. The assay is classed as in vivo, KuMing mice. To be noted: glycyrrhizin 105 mg/kg, glycyrrhetinic acid 72 mg/kg; for Inflammatory score / CMDI / GSH / MPO / MDA / SOD: once per day, 10 days; for Inflammatory score: normal 0, model 7.50 ± 0.7; for CMDI: normal 0.73 ± 0.03, model 1.75 ± 0.35; for GSH / MPO / MDA / SOD: colon homogenate; for GSH: normal 0.58 ± 0.12, model 0.16 ± 0.09; for MPO: normal 3.37 ± 0.31, model 1.33 ± 0.83; for MDA: normal 10.58 ± 2.74, model 26.2 ± 5.5; for SOD: normal 707 ± 105, model 309 ± 68; for CMDI of IBD mice decreased / MPO activity increased / inflammatory scores were lowered: once per day for ten days. The protocol: In Adis group, mice were provided Adis 600 mg/kg afer enema, once per day. Normal control and model groups were orally given with equal amount of normal saline daily. After seven days drug treatment, all mice except for normal control were stimulated with acetic acid to induce IBD. On day six, starvation was applied after drug treatment to all groups. On day seven, after drug treatment, mice were put to sleep with ether and the procedure of enema was performed before injecting 0.1 ml of 6% acitic acid using polyethylene tubings. Acitic acid was injected into mice through anus in depth about 1.5 cm to induce IBD. One minute after the actic acid injection, wash twice with normal saline and let the animals lay down and awake naturally. For normal control, mice were treated with equal amount of saline.
Drug treatment continued to day 10 to all groups. 24 hours after the last drug treatment, the mice were sacrificed. Take and weight the whole colon, score colon organ index, and evaluate CMDI. Colon tissues were homogenized in Tris buffer and adjusted to the concentration 5% for MPO, MDA, SOD, and GSH tests.
(§1) CMDI: Cut open the mouse along the mesentery and take the whole colon. Observe peritoneal adhesion, colon ulcer, and congestion. The standard of evaluation was listed on Table 1.
(§2) Myeloperoxidase (MPO): Carefully weight tissue samples, use Tris buffer (weight to volume ratio 1:19) to prepare 5% homogenization solution by high-speed homogenizer. Handle all steps on ice. Protein concentration was determined by method Lowry and use MPO test kit.
(§3) Lipid peroxidase (MDA): TBA was used to detect MDA in the homogenization solution
Superoxide dismutas (SOD): Method of pyrogallol was used to detect the activity of SOD in the homogenization solution
(§4) Glutathione (GSH): Follow the product insert coming with the test kit to detect GSH in the samples
The total score is combined with both parts of A with B.

The test system is the same in assay [2]. Put plainly: Experiment II: acetic acid induced IBD in mice, ammonium glycyrrhizinate. The assay is classed as in vivo, Kuming mice. The note with it: for GSH / MPO / MDA / SOD: colon homogenate; for GSH / MPO / MDA / SOD / CMDI: once per day, 10 days; for GSH: normal 0.58 ± 0.12, model 0.16 ± 0.09; for MPO: normal 3.37 ± 0.31, model 1.33 ± 0.83; for MDA: normal 10.58 ± 2.74, model 26.2 ± 5.5; for SOD: normal 707 ± 105, model 309 ± 68; for CMDI: normal 0.73 ± 0.03, model 1.75 ± 0.35. The protocol: Kuming mice were randomly distributed into seven groups consisting of normal control, model group, Adis positive control, monoammonium glycyrrhizinate oral administration, diammonium glycyrrhizinate oral administration, triammonium glycyrrhizinate oral administration, diammonium glycyrrhizinate injection. In Adis group, mice were provided Adis 600 mg/kg after enema, once a day. In glycyrrhizinate oral administration groups, 14 mg/kg dose of individual glycyrrhizinate was applied once per day. Normal control and model group were orally given by equal amount of normal saline daily. After seven days drug treatment, all mice except for normal control were stimulated with acetic acid to induce IBD. On day six, starvation was applied after drug treatment to all groups. On day seven, after drug treatment, mice were put to sleep with ether and the procedure of enema was performed before injecting 0.1 ml of 6% acitic acid using polyethylene tubings. Acitic acid was injected into mice through anus in depth about 1.5 cm to induce IBD. One minute after the actic acid injection, wash twice with normal saline and let the animals lie down and awake naturally. For normal control, mice were treated with equal amount of saline. Drug treatment continued to day 10 to all groups. 24 hours after the last drug treatment, the mice were sacrificed. Take and weight the whole colon, score colon organ index, and evaluate CMDI. Colon tissues were homogenized in Tris buffer and adjusted to the concentration 5% for MPO, MDA, SOD, and GSH tests.
as §1, §2, §3
Superoxide dismutase (SOD): Method of pyrogallol was used to detect the activity of SOD in the homogenization solution
as §4
The total score is combined with both parts of A and B.

[3] abbreviates: injection (IP.) 14 mg/kg, once per day for ten days.
Where [4] appears, read: oral 14 mg/kg, once per day for ten days.

Consider `CC1(C)[C@@H](O[C@H]2O[C@H](C(=O)O)[C@@H](O)[C@H](O)[C@H]2O[C@@H]2O[C@H](C(=O)O)[C@@H](O)[C@H](O)[C@H]2O)CC[C@]2(C)[C@H]3C(=O)C=C4[C@@H]5C[C@@](C)(C(=O)O)CC[C@]5(C)CC[C@@]4(C)[C@]3(C)CC[C@@H]12` [Glycyrrhizin, glycyrrhizic acid], for which, in assay [1] (IP injection), the Inflammatory score is 1.5 ± 0.41^ΔΔ, the CMDI was 0.88 ± 0.18^ΔΔ g/100 g, the GSH is 0.36 ± 0.09^ΔΔ mg/mgpro and the MPO is on record as 5.59 ± 0.94^ΔΔ U/mgpro. Besides, in assay [1] (IP injection), the MDA was 5.08 ± 1.91^ΔΔ nmol/mgpro and the SOD was 467 ± 49^ΔΔ U/mgpro. The molecule also had an Inflammatory score in assay [1] (IP injection, listed as glycyrrhizin) of 1.5. Besides, in assay [1] (oral), the GSH was 0.33 ± 0.22^ΔΔ mg/mgpro, the MPO was 5.09 ± 0.29^ΔΔ U/mgpro, the MDA is 6.04 ± 0.89^ΔΔ nmol/mgpro and the SOD is 425 ± 12^ΔΔ U/mgpro. In assay [1] (oral), the “CMDI of IBD mice decreased” value was 82.3%, the MPO activity increased is listed as 2.83 ×, the “inflammatory scores were lowered” value was determined as 4 × and the Inflammatory score is given as 1.5 ± 0.31^ΔΔ. Further, the CMDI in assay [1] (oral) is listed as 0.96 ± 0.03^ΔΔ g/100 g. In assay [1] (injection (IP)), the “CMDI of IBD mice decreased” value is reported as 98.86%, the MPO activity increased is given as 3.20 × and the “inflammatory scores were lowered” value stood at 4 ×. This molecule yielded an Inflammatory score in assay [1] (oral, listed as glycyrrhizin) of 1.5.

As for `CC1(C)[C@@H](O[C@H]2O[C@H](C(=O)O)[C@@H](O)[C@H](O)[C@H]2O[C@@H]2O[C@H](C(=O)O)[C@@H](O)[C@H](O)[C@H]2O)CC[C@]2(C)[C@H]3C(=O)C=C4[C@@H]5C[C@@](C)(C(=O)O)CC[C@]5(C)CC[C@@]4(C)[C@]3(C)CC[C@@H]12.N.N` [diammonium glycyrrhizinate], in assay [2] (injection 14 mg/kg), the GSH is given as 0.27 ± 0.13^ΔΔ mg/mgpro, the MPO is 3.55 ± 0.45^ΔΔ U/mgpro, the MDA is listed as 7.85 ± 3.55^ΔΔ nmol/mgpro and the SOD is on record as 533 ± 101^ΔΔ U/mgpro. Moreover, the CMDI in assay [2] (injection 14 mg/kg) is on record as 0.97 ± 0.18^ΔΔ g/100 g. In assay [2] (oral 14 mg/kg), the GSH was 0.49 ± 0.14^ΔΔ mg/mgpro, the MPO is 2.93 ± 0.26^ΔΔ U/mgpro, the MDA is 8.32 ± 5.04^ΔΔ nmol/mgpro and the SOD is given as 505 ± 132^ΔΔ U/mgpro. Also, in assay [2] (oral 14 mg/kg), the CMDI is listed as 1.06 ± 0.31^ΔΔ g/100 g. Further, in assay [2] (setting [3]), the “CMDI of IBD mice decreased” value worked out at 45.7%, the MPO activity increased is given as 1.67 × and the “inflammatory score was lowered” value came to 2.75 ×. In assay [2] (setting [4]), the “CMDI of IBD mice decreased” value was determined as 39.4%, the MPO activity increased is reported as 1.20 × and the “inflammatory scores were lowered” value came out at 1.73 ×.

For `CC1(C)C2CC[C@]3(C)C(C(=O)C=C4C5C[C@@](C)(C(=O)O)CC[C@]5(C)CCC43C)[C@@]2(C)CC[C@@H]1O` (some centres unmarked) [glycyrrhetinic acid], in assay [1] (IP injection), the CMDI is 1.07 ± 0.28^ΔΔ g/100 g, the GSH was 0.31 ± 0.08^ΔΔ mg/mgpro, the MPO is reported as 4.51 ± 0.35^ΔΔ U/mgpro and the MDA is 5.85 ± 1.33^ΔΔ nmol/mgpro. Besides, in assay [1] (oral), the GSH is given as 0.31 ± 0.08^ΔΔ mg/mgpro, the MPO was 3.48 ± 0.46^ΔΔ U/mgpro, the MDA is 4.56 ± 2.28^ΔΔ nmol/mgpro and the “CMDI of IBD mice decreased” value was 57.65%. In assay [1] (oral), the MPO activity increased worked out at 1.62 × and the CMDI was 1.11 ± 0.41^ΔΔ g/100 g. In assay [1] (injection (IP)), the “CMDI of IBD mice decreased” value was 63.55%, the MPO activity increased is given as 2.39 × and the “inflammatory scores were lowered” value is on record as 2.75 ×.

In the case of `CC1(C)[C@@H](O[C@H]2O[C@H](C(=O)O)[C@@H](O)[C@H](O)[C@H]2O[C@@H]2O[C@H](C(=O)O)[C@@H](O)[C@H](O)[C@H]2O)CC[C@]2(C)[C@H]3C(=O)C=C4[C@@H]5C[C@@](C)(C(=O)O)CC[C@]5(C)CC[C@@]4(C)[C@]3(C)CC[C@@H]12.N` [monoammonium glycyrrhizinate], in assay [2] (oral 14 mg/kg), the GSH is on record as 0.32 ± 0.12^ΔΔ mg/mgpro, the MPO is listed as 2.99 ± 0.26^ΔΔ U/mgpro, the MDA is given as 16.14 ± 5.81^ΔΔ nmol/mgpro and the SOD was 412 ± 112^ΔΔ U/mgpro. Also, in assay [2] (oral 14 mg/kg), the CMDI is 1.50 ± 0.03^Δ g/100 g. For the same molecule, in assay [2] (setting [4]), the “CMDI of IBD mice decreased” value is reported as 14.3%, the MPO activity increased was 1.25 × and the “inflammatory scores were lowered” value was 1.5 ×.

`CC1(C)[C@@H](O[C@H]2O[C@H](C(=O)O)[C@@H](O)[C@H](O)[C@H]2O[C@@H]2O[C@H](C(=O)O)[C@@H](O)[C@H](O)[C@H]2O)CC[C@]2(C)[C@H]3C(=O)C=C4[C@@H]5C[C@@](C)(C(=O)O)CC[C@]5(C)CC[C@@]4(C)[C@]3(C)CC[C@@H]12` [triammonium glycyrrhizinate]: in assay [2] (oral 14 mg/kg), the GSH is reported as 0.26 ± 0.09^ΔΔ mg/mgpro, the MPO is 1.59 ± 0.94^ΔΔ U/mgpro, the MDA is given as 16.88 ± 5.97^ΔΔ nmol/mgpro and the SOD is recorded as 368 ± 79^ΔΔ U/mgpro. In addition, the CMDI in assay [2] (oral 14 mg/kg) is recorded as 1.49 ± 0.08^ΔΔ g/100 g. In assay [2] (setting [4]), the “CMDI of IBD mice decreased” value was determined as 14.9%, the MPO activity increased is on record as 0.20 × and the “inflammatory scores were lowered” value came out at 1.5 ×.

Source of the values: patent US20100087385A1 (priority 2006, published 2010).
